How the values were obtained:
K562 leukemia cells = experiment: Apoptosis morphology, transmission electron microscope; assay type: cell-based, human; conditions: 60 μg/ml, 4 hours
Experimental: (§1) Human cancer cell lines DU-145 (prostate cancer), K562 (leukemia), HCT116 (colon cancer), H1688 (lung cancer), SUN423 (hepatocarcinoma), MCF7 (breast cancer), CRL-1687 (pancreatic cancer), and SUN-1 (gastric cancer) were obtained from American Type Culture Collection (ATCC). 30 ml blood was collected from a health person and normal peripheral mononuclear cells were separated by Ficoll separation solution (Sigma). All cells were maintained in RPMI 1640, DMEM, or McCoy medium supplemented with 10% FCS, […] streptomycin and 100 u/ml penicillin. Normal human peripheral mononuclear cells, K562 and SUN-1 were suspended cells. After spinning at 1,500 RPM for 5 min, supernatants were discharged and cells were resuspended and expended in fresh medium. The other tumor cell lines were adherent cells and were dispersed with 0.05% trypsin/0.01% EDTA (Irvine Scientific, CA) for expansion. Cells were seeded in T75 flasks at 2×10^6 cells/flask in culture medium supplemented with 10% fetal bovine serum and incubated overnight at 37° C. with 5% CO2. The adherent cells attached to the plate were striped with disposable cell scrapers (Fisher Scientific) after treated either with 1% iso-C15, anteiso-C15 or control solution for 1, 2, 4, 8 and 24 hours and then combined with respective float cells. […]

[1] = system: DU-145 human prostate carcinoma cell lines; experiment: Apoptosis morphology, H&E, light microscope; assay type: cell-based; conditions: 60 μg/ml, 8 hours
Experimental: as §1

DU145 cancer cells = experiment: In situ cell death detection, POD; assay type: cell-based, human; conditions: 60 μg/ml, 8 hours
Excerpt: (§2) In Situ Cell Death Detection Kit, POD (Mannheim Boehringer GmbH) was used to detect the individual apoptotic cells. Cleavage of genomic DNA during apoptosis may yield double-stranded, low molecular weight DNA fragments as well as single strand breaks in high molecular weight DNA. Those DNA strand breaks can be identified by labeling free 3′-OH termini with modified nucleotides in an enzymatic reaction. In this kit terminal deoxynucleotidyl transferase (TdT) is used to label free 3′-OH ends in genomic DNA with fluorescein-dUTP. The incorporated fluorescein is visualized under fluorescence microscope directly. The incorporated fluorescein can also bind to anti-fluorescein antibody POD and be detected by substrate reaction. Stained cells can be analyzed under light microscope.
(§3) H1688, K-562 and DU145 human cancer cells and normal human PBLs were added with POD and incubated 30 min at 37° C., washed three times with PBS, then reacted with substrate AEC and incubated for 10 min at room temperature. The cells were analyzed under light microscope. […] It is evidenced that iso-C15 induces apoptosis of cancer cells but not normal human cells.

normal human PBLs = experiment: In situ cell death detection, POD; assay type: cell-based; conditions: 60 μg/ml, 8 hours
Excerpt: as §2
Four human tumor cell lines, K-562 human leukemia, SNU-1 human gastric carcinoma cell lines, MCF-7 human breast adenocarcinoma and H1688 human small cell lung carcinoma cell lines, as well as Human PBLs were treated with iso-C15 (60 μg/ml).
as §3

[2] = system: K562 human leukemia cells; experiment: Western blot analysis of caspase target proteins Lamin B and RB; assay type: cell-based; conditions: 1% iso-C15 (60 μg/ml)
Experimental: (§4) For Western blot assay, each cell pellet collected from 1% iso-C15 or control treated cultures was lysed in 150 μl lysis buffer with 0.5% NP-40, 0.5% deoxycholic acid and 1 mM PMSF. The cell lysates were mixed with equal volume 2× Laemmli buffer and boiled for 5 min before loaded into gel wells. Proteins were resolved in an 8% SDS-PAGE gel and transferred to nitrocellulose filter membrane. The filters were blocked with PBS-T (PBS with 0.1% Tween 20) containing 5% nonfat dry milk (Bio-Rad, Richmond, Calif.) for 1 hr and then incubated for 1 hr with proper dilution of one primary antibody in PBS-T containing 2% nonfat dry milk. The filters then were washed in PBS-T 5 min for 6 times and incubated with a 1:8000 dilution of HRP secondary antibody in PBS-T with 2% nonfat dry milk for 1 hr. After 6 washes in PBS-T, immune complexes were visualized on film using the ECL nonradioactive detection system (Amersham, Arlington Heights, Ill.). After detected with one primary antibody, the filter was striped with 0.1 mM Tris pH 7.5 and 0.05 mM β-metacapenanol at 50° C. for 30 min. The filters were washed in 300 ml PBS-T buffer for 10 min twice before blocking with PBS-T with 5% nonfat dry milk. The membranes were then reprobed with monoclonal mouse anti-human β-actin to determine the equal loading of protein for each well.
(§5) The cleavages of Lamin B, a caspase target protein, in apoptotic SNU-423 human hepatocellular carcinoma cells and K562 human leukemia cells were shown in FIGS. 14 and 15, respectively. The cells were treated with 1% control solution and 1% iso-C15 for the length of time indicated. Cell lysates were separated by SDS-PAGE. Lamin B was detected by immunoblotting with a monoclonal antibody. […] The Western blot analysis of RB protein in SNU-423 and K562 cells were shown in FIGS. 16 and 17, respectively.

[3] = system: SNU-423 human hepatocellular carcinoma cells; experiment: as above; assay type: cell-based; conditions: 1% iso-C15 (60 μg/ml)
Experimental: as §4, §5

Determination of LD50 = assay type: in vivo
Experimental: 13-methyltetradecanoic acid (iso-C15) purchased from Sigma (St. Louis, Mo.) was prepared by dissolving in NaOH solution and then in 0.35% Tween 80 with pH7.5.
ICR mice weighing 20.5–22.5 g of both sexes were treated with iso-C15 i.p. qd×3 in test groups and with solvent of same dose as in a control group. The doses ranged from 10 to 800 mg/kg of iso-C15 and two mice were included in each dose group (10 mg/kg, 20 mg/kg, 40 mg/kg, 80 mg/kg, 160 mg/kg, and 800 mg/kg). The general condition of these mice were monitored daily for seven days.

Compound: CC(C)CCCCCCCCCCCC(=O)O [iso-C15, 13-methyltetradecanoic acid]
- morphological changes indicative of apoptosis (K562 leukemia cells): exhibits typical apoptotic feature
- morphological changes indicative of apoptosis [1]: membrane blebs were noted
- apoptotic cells stained, POD (DU145 cancer cells): Some stained apoptotic DU145 cancer cells were shown
- apoptotic cells stained, POD (normal human PBLs): few stained apoptotic cells were seen
- Lamin B cleavage [2]: cleaved 45 kDa products
- RB hypophosphorylation and cleavage [2]: induced the change of hyperphosphorylated RB (pRB120/hyper) to hypophosphorylated form (pRB115/hypo)
- Lamin B cleavage [3]: cleaved 45 kDa and 32 kDa products
- RB hypophosphorylation and cleavage [3]: induced the change of hyperphosphorylated RB (pRB120/hyper) to hypophosphorylated form (pRB115/hypo)
- LD50 at 7 days (Determination of LD50; both sexes, ICR, mouse, in vivo, ip): > 800 mg/kg
- mortality (Determination of LD50; i.p. qd×3, dose up to 800 mg/kg, monitored seven days): No mice died
